Data from PubChem BioAssay (NCI).
Values joined by “and” are separate entries in the source; they are usually repeats but may differ in a detail not shown here. Identical values can stand only once.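 Results reflect a 48-hour exposure of cells in 96-well plates to compound at five concentrations. GI50 marks 50% less growth. At the TGI there is no net growth.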

What was measured:
Assay in all cases: NCI-60 cell line screen, 48 h
EKVX NSCLC = test system: EKVX NSCLC
TK-10 renal = test system: TK-10 renal
SF-295 CNS = test system: SF-295 CNS
SW-620 colon = test system: SW-620 colon
MOLT-4 leukemia = test system: MOLT-4 leukemia
SK-MEL-28 melanoma = test system: SK-MEL-28 melanoma
OVCAR-3 ovarian = test system: OVCAR-3 ovarian
NCI-H226 lung = test system: NCI-H226 lung
HCT-116 colon = test system: HCT-116 colon
HT29 colon = test system: HT29 colon
SF-539 CNS = test system: SF-539 CNS

SMILES | TGI (EKVX NSCLC) [µM] | GI50 (TK-10 renal) | TGI (TK-10 renal) | TGI (SF-295 CNS) | TGI (SW-620 colon) | GI50 (MOLT-4 leukemia) | TGI (MOLT-4 leukemia) | TGI (SK-MEL-28 melanoma) | TGI (OVCAR-3 ovarian) | TGI (NCI-H226 lung) | TGI (HCT-116 colon) | TGI (HT29 colon) | TGI (SF-539 CNS)
CCOc1ccc2[nH]c3c(C)c4cc[n+](C)cc4c(C)c3c2c1 | > 100 | 9.4 µM and 26.6 µM | 81.6 µM and > 100 µM | 0.672 µM and 1.55 µM | 15.6 µM and > 83.8 µM | 1.11 µM and 2.69 µM | 21.6 µM and > 56 µM | 7.9 µM and 13 µM | 22.5 µM and 51.7 µM | 0.965 µM and 2.88 µM | 18.5 µM and > 37.7 µM | 28.4 µM and 32.7 µM | 1.63 µM and 2.65 µM
CC(=O)O[C@H]1C#C/C=C\C#CC[C@@H]2C(=O)N(C(=O)OC(C)(C)C)[C@@H]12 | > 100 | – | > 100 µM | > 100 µM | > 100 µM | – | > 53.5 µM | > 100 µM | 98.3 µM | 84.8 µM | > 89.4 µM | > 100 µM | 18.5 µM
OC1CCCC1C(O)(C(F)(F)F)C(F)(F)F (stereo unspecified) | > 100 | – | > 100 µM | > 100 µM | > 100 µM | – | > 100 µM | > 100 µM | > 100 µM | > 100 µM | > 100 µM | > 100 µM | > 100 µM
CNC(=O)CCC(NC(C)=O)C(=O)NC(Cc1ccc(NC(=O)CCCCC(C)=O)cc1)C(=O)NC(CCC(=O)NC)C(=O)NC (stereo unspecified) | > 100 | – | > 100 µM | > 100 µM | > 100 µM | – | > 100 µM | > 100 µM | > 100 µM | > 100 µM | > 100 µM | > 100 µM | > 100 µM
S=C(N/N=C\C=N/NC(=S)N1CCCCCC1)N1CCCCCC1 | > 100 | – | > 100 µM | > 100 µM | > 100 µM | – | > 100 µM | > 100 µM | > 100 µM | > 100 µM | > 100 µM | > 100 µM | > 100 µM
Nc1ccc2c(c1)C(=O)c1ccccc1-2 | > 100 | – | > 100 µM | > 100 µM | > 100 µM | – | 75.1 µM | > 100 µM | > 100 µM | > 100 µM | > 100 µM | > 100 µM | > 100 µM
C/C(O)=C(\C=N\C(N)=S)C(=O)Nc1ccccc1C | > 100 | – | > 100 µM | > 100 µM | > 100 µM | – | > 100 µM | > 100 µM | > 100 µM | > 100 µM | > 100 µM | > 100 µM | > 100 µM
COc1ccc(/C=C/c2cc(O)cc(OC)c2)cc1 | > 100 | – | > 100 µM | > 100 µM | > 100 µM | – | > 100 µM | > 100 µM | > 100 µM | > 100 µM | > 100 µM | > 100 µM | > 100 µM
Cc1nc(C)c(C(=O)Nc2cccc3c2C(=O)NC3=O)cc1C(=O)Nc1cccc2c1C(=O)NC2=O | > 100 | – | > 100 µM | > 100 µM | > 100 µM | – | > 100 µM | > 100 µM | > 100 µM | > 100 µM | > 100 µM | > 100 µM | > 100 µM
COC(=O)[C@H](C)N1C(=O)N[C@@H](C(C)C)C1=O | > 100 | – | > 100 µM | > 100 µM | > 100 µM | – | > 100 µM | > 100 µM | > 100 µM | > 100 µM | > 100 µM | > 100 µM | > 100 µM
O=C(N/N=C\c1cccc2ccccc12)Nc1ccc([N+](=O)[O-])cc1 | > 100 | – | > 80.9 µM | > 100 µM | > 100 µM | – | > 100 µM | > 100 µM | 38.3 µM | > 100 µM | > 53.7 µM | > 100 µM | > 100 µM
O=C1/C(=C/c2ccccc2)CCc2ccc(Cl)nc21 | 38.3 | – | 32.7 µM | 38.2 µM | 18.6 µM | – | 5.93 µM | 39.6 µM | 46.9 µM | 61.9 µM | 7 µM | 3.78 µM | 15.4 µM
Cc1ccc2nc3c(C)c(Cl)c(=O)cc-3sc2c1 | > 95.6 | – | > 100 µM | 81.3 µM | > 100 µM | – | 41.3 µM | 99.2 µM | > 100 µM | 64 µM | 58 µM | > 100 µM | 62.3 µM
O=C(O)/C=C(/CC(=O)O)C(=O)O | 51.7 | – | 54.6 µM | 37.8 µM | 39.8 µM | – | 38.4 µM | 43.7 µM | 34.5 µM | 45.6 µM | 35.6 µM | 59.2 µM | 26 µM
CC(C)(C)N=C1CC(C)(C)c2ccccc2C(=Nc2ccccc2)S1 | > 100 | – | > 100 µM | > 100 µM | > 100 µM | – | 69.2 µM | > 100 µM | > 100 µM | > 100 µM | > 100 µM | > 100 µM | > 100 µM
CCCCc1c2c(nc3c1CCc1cc4c(nc1-3)-c1nc3c(c(CCCC)c1CC4)CCC/C3=C\c1ccccc1)/C(=C/c1ccccc1)CCC2 | > 100 | – | > 100 µM | > 100 µM | > 100 µM | – | > 100 µM | > 100 µM | > 100 µM | > 100 µM | > 100 µM | > 100 µM | > 100 µM
Cc1cc2ccccc2n1CC(=O)NCC(C)C | > 100 | – | > 100 µM | > 100 µM | > 100 µM | – | > 100 µM | > 100 µM | > 100 µM | > 100 µM | > 100 µM | > 100 µM | > 100 µM
COc1ccc(C(O)c2ccc3c(c2)OCO3)cc1 (stereo unspecified) | > 100 | – | > 100 µM | > 100 µM | > 100 µM | – | > 100 µM | > 100 µM | > 100 µM | > 100 µM | > 100 µM | > 100 µM | > 100 µM
C#CCNC(Cc1cnc[nH]1)C(=O)O (stereo unspecified) | > 100 | – | > 100 µM | > 100 µM | > 100 µM | – | > 100 µM | > 100 µM | > 100 µM | > 100 µM | > 100 µM | > 100 µM | > 100 µM
